# Experiments:
# MDA-MB-231 = assay: Antiproliferative activity against human MDA-MB-231 cells by MTT assay; format: functional, cell-based
# [1] = target: T1, Serine/threonine-protein kinase ULK2 (Homo sapiens, UniProt Q8IYT8); assay: Inhibition of GST-tagged ULK2 (unknown origin)
# T1 sequence (Q8IYT8 whole entry): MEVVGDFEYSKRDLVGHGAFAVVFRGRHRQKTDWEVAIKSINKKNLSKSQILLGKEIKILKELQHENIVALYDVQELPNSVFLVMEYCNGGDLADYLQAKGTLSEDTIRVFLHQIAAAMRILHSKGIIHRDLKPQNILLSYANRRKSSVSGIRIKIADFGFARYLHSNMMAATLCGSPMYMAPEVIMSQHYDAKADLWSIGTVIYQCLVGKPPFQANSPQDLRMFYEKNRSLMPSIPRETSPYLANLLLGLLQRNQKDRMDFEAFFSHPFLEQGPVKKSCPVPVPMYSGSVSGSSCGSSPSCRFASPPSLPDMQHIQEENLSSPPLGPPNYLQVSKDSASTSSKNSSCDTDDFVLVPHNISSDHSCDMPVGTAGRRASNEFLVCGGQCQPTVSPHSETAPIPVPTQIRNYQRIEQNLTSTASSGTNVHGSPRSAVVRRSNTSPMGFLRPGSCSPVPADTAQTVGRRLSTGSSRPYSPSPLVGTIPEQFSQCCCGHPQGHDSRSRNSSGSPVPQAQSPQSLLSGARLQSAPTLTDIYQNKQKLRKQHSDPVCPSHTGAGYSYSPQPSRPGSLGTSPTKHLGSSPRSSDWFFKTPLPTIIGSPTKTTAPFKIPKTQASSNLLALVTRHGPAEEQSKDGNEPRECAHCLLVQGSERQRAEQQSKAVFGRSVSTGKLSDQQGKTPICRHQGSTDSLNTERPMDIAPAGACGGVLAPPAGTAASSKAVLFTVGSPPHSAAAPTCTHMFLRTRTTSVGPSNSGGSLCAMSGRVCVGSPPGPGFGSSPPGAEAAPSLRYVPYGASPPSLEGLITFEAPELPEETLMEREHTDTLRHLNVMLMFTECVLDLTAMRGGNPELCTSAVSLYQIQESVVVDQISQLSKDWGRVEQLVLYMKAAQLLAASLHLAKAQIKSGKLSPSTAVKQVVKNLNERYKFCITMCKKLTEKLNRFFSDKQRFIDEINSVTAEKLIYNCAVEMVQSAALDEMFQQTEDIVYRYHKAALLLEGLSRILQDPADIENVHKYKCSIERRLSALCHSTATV
IC50 (MDA-MB-231) [nM],SMILES,IC50 [1] [nM]
1660,CC(C)CN(CC(=O)N1CCN(CC(OCc2ccc3ccccc3c2)c2ccc(Cl)cc2Cl)CC1)CC(C)C (configuration not stated),–
–,CNC(=O)c1ccccc1Oc1nc(Nc2cc(OC)c(OC)c(OC)c2)ncc1Br,711

# Reference: ChEMBL document CHEMBL4118108, “UNC-51-like Kinase 1: From an Autophagic Initiator to Multifunctional Drug Target” (J Med Chem, 2018)
